Values belong to the compound of their own block, whether it stands above or below them.
Key:
[1] = target: T1, Mitogen-activated protein kinase 14 (Homo sapiens, UniProt Q16539); assay: Selectivity interaction (Tracer competition assays (Reaction Biology)) EUB0001201a MAPK14
[2] = target: T1, Mitogen-activated protein kinase 14; assay: Selectivity interaction (NanoBRET assay (using HEK293T cells)) EUB0001201a MAPK14; format: cell-based, HEK-293T
[3] = target: Casein kinase I isoform alpha (Homo sapiens, UniProt P48729); assay: Selectivity interaction (Kinase panel (Reaction Biology)) EUB0001205a CSNK1A1; details: at 1 µM
[4] = target: Casein kinase I isoform alpha-like (Homo sapiens, UniProt Q8N752); assay: Selectivity interaction (Tracer competition assays (Reaction Biology) ) EUB0001205a CSNK1A1L
[5] = target: T2, Casein kinase I isoform delta (Homo sapiens, UniProt P48730); assay: Selectivity interaction (Kinase panel (Reaction Biology)) EUB0001205a CSNK1D; details: at 1 µM
[6] = target: T2, Casein kinase I isoform delta; assay: Selectivity interaction (Western Blot assay (autophosphorylation of CSNK1D in HEK293T-REx cells)) EUB0001205a CSNK1D; format: cell-based, T-REx-293
[7] = target: T3, Casein kinase I isoform epsilon (Homo sapiens, UniProt P49674); assay: Selectivity interaction (Kinase panel (Reaction Biology)) EUB0001205a CSNK1E; details: at 1 µM
[8] = target: T3, Casein kinase I isoform epsilon; assay: Selectivity interaction (Western Blot assay (autophosphorylation of CSNK1E in HEK293T-REx cells)) EUB0001205a CSNK1E; format: cell-based, T-REx-293
[9] = target: TRAF2 and NCK-interacting protein kinase (Homo sapiens) (UniProt Q9UKE5); assay: Selectivity interaction (Kinase panel (Reaction Biology)) EUB0001205a TNIK; details: at 1 µM
[10] = target: T4, Tyrosine-protein kinase ZAP-70 (Homo sapiens) (UniProt P43403); assay: Selectivity interaction (Kinase panel (Reaction Biology)) EUB0001205a ZAP70; details: at 1 µM
T4 sequence (whole entry): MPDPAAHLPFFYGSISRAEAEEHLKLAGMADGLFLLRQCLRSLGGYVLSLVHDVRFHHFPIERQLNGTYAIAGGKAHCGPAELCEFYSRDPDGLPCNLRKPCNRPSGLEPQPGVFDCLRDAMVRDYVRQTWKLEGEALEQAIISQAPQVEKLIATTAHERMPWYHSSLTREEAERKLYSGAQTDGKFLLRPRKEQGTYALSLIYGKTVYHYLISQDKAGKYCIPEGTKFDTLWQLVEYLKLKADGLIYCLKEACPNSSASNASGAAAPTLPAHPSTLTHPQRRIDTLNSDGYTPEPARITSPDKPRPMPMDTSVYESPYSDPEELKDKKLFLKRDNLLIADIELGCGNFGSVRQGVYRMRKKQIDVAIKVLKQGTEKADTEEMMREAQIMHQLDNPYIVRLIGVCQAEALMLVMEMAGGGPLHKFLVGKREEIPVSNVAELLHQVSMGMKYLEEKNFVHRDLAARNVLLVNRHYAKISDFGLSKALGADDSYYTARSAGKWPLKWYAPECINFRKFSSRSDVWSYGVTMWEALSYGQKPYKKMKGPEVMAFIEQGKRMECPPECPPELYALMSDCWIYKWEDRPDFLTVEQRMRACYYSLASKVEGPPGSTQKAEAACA

[11] = target: Dual specificity protein kinase CLK1 (Homo sapiens, UniProt P49759)
[12] = target: Dual specificity protein kinase CLK2 (Homo sapiens, UniProt P49760)
[13] = target: Dual specificity protein kinase CLK3 (Homo sapiens, UniProt P49761)
[14] = target: Dual specificity protein kinase CLK4 (Homo sapiens, UniProt Q9HAZ1)
[15] = target: Dual specificity tyrosine-phosphorylation-regulated kinase 1A (Homo sapiens, UniProt Q13627)
[16] = target: Dual specificity tyrosine-phosphorylation-regulated kinase 1B (Homo sapiens, UniProt Q9Y463)
[17] = target: T5, Dual specificity tyrosine-phosphorylation-regulated kinase 2 (Homo sapiens, UniProt Q92630)
T5 sequence (Q92630 whole entry): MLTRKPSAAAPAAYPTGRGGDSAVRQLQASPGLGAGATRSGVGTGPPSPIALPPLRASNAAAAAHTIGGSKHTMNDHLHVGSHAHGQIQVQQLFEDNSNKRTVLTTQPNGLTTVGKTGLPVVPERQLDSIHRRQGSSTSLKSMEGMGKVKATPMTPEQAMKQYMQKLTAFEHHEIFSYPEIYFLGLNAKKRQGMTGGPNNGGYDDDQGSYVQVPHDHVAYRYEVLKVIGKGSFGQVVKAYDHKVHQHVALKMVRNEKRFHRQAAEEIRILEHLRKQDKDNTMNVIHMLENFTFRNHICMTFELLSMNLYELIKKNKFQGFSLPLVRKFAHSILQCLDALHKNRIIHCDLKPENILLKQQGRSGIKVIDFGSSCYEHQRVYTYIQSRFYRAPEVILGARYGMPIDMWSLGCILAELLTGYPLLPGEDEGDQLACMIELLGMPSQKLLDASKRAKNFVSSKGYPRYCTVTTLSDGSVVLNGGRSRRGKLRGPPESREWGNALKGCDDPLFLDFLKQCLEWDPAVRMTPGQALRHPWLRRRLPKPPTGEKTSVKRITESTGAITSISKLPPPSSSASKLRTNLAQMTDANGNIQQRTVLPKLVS

[18] = target: T6, Dual specificity tyrosine-phosphorylation-regulated kinase 3 (Homo sapiens, UniProt O43781)
T6 sequence (O43781 whole entry): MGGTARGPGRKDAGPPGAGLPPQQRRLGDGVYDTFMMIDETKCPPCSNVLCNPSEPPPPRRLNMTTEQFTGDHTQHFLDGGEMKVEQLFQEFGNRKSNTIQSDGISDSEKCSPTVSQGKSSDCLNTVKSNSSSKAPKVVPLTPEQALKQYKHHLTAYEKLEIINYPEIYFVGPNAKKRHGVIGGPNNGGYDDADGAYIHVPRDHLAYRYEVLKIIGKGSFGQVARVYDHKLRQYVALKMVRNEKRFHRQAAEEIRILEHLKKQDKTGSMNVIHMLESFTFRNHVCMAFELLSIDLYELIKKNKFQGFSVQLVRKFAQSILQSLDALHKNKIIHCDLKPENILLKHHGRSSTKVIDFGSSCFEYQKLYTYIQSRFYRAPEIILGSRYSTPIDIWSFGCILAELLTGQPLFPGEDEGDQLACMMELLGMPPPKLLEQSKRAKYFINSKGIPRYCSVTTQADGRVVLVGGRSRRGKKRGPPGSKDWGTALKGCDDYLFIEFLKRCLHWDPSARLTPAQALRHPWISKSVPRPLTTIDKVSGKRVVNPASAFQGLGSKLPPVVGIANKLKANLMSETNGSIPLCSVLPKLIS

SRSF protein kinase 1 [19] = target: T7, SRSF protein kinase 1 (Homo sapiens, UniProt Q96SB4); details: at 1 µM
SRSF protein kinase 1 [20] = target: T7, SRSF protein kinase 1
[21] = target: SRSF protein kinase 2 (Homo sapiens) (UniProt P78362)
[22] = target: ATPase family AAA domain-containing protein 2 (Homo sapiens, UniProt Q6PL18); assay: Selectivity interaction (BROMOscan) EUB0001074a ATAD2
[23] = target: ATPase family AAA domain-containing protein 2B (Homo sapiens, UniProt Q9ULI0); assay: Selectivity interaction (BROMOscan) EUB0001074a ATAD2B
[24] = target: Bromodomain adjacent to zinc finger domain protein 2A (Homo sapiens, UniProt Q9UIF9); assay: Selectivity interaction (BROMOscan) EUB0001074a BAZ2A
[25] = target: T8, Bromodomain-containing protein 4 (Homo sapiens, UniProt O60885); assay: Selectivity interaction (BROMOscan) EUB0001074a BRD4
[26] = target: T8, Bromodomain-containing protein 4; assay: Selectivity interaction (AlphaScreen) EUB0001074a BRD4
[27] = target: Bromodomain-containing protein 7 (Homo sapiens, UniProt Q9NPI1); assay: Selectivity interaction (BROMOscan) EUB0001074a BRD7
[28] = target: T9, Bromodomain-containing protein 9 (Homo sapiens, UniProt Q9H8M2); assay: Selectivity interaction (BROMOscan) EUB0001074a BRD9
T9 sequence (Q9H8M2 whole entry): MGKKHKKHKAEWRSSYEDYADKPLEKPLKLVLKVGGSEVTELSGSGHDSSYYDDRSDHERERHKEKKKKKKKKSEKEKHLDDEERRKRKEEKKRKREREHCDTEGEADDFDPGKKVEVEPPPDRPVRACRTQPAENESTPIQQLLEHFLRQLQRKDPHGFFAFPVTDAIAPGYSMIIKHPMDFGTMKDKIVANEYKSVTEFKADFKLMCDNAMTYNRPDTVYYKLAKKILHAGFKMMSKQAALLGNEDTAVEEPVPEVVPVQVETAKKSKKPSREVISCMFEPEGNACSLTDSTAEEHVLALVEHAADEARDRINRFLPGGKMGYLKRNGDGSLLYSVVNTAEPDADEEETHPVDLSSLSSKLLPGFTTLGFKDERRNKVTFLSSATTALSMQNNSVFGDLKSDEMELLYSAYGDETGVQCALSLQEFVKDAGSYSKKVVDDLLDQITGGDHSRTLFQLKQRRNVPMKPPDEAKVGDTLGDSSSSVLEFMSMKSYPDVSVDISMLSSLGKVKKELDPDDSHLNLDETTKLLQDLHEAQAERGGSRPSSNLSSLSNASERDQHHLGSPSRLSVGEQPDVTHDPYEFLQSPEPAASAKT

[29] = target: T9, Bromodomain-containing protein 9; assay: Selectivity interaction (AlphaScreen) EUB0001074a BRD9
Peregrin = Peregrin (Homo sapiens, UniProt P55201); assay: Selectivity interaction (AlphaScreen) EUB0001074a BRPF1
[30] = target: T10, Chromatin remodeling regulator CECR2 (Homo sapiens, UniProt Q9BXF3); assay: Selectivity interaction (BROMOscan) EUB0001074a CECR2
[31] = target: T10, Chromatin remodeling regulator CECR2; assay: Selectivity interaction (AlphaScreen) EUB0001074a CECR2
CREB-binding protein = CREB-binding protein (Homo sapiens, UniProt Q92793); assay: Selectivity interaction (BROMOscan) EUB0001074a CREBBP
[32] = target: Nucleosome-remodeling factor subunit BPTF (Homo sapiens, UniProt Q12830); assay: Selectivity interaction (AlphaScreen) EUB0001074a BPTF
[33] = target: Histone acetyltransferase KAT2B (Homo sapiens, UniProt Q92831); assay: Selectivity interaction (BROMOscan) EUB0001074a KAT2B
[34] = target: SWI/SNF-related matrix-associated actin-dependent regulator of chromatin subfamily A member 2 (Homo sapiens, UniProt P51531); assay: Selectivity interaction (BROMOscan) EUB0001074a SMARCA2
[35] = target: TATA box-binding protein-associated factor RNA polymerase I subunit A (Homo sapiens, UniProt Q15573); assay: Selectivity interaction (AlphaScreen) EUB0001074a TAF1A
[36] = target: E3 ubiquitin-protein ligase TRIM33 (Homo sapiens, UniProt Q9UPN9); assay: Selectivity interaction (BROMOscan) EUB0001074a TRIM33
Activin receptor type-1B = Activin receptor type-1B (Homo sapiens, UniProt P36896); assay: Selectivity interaction (NanoBRET assay (HEK293T cells)) EUB0001465a ACVR1B; format: cell-based, HEK-293T
[37] = target: Bone morphogenetic protein receptor type-1A (Homo sapiens, UniProt P36894); assay: Selectivity interaction (NanoBRET assay (HEK293T cells)) EUB0001465a BMPR1A; format: cell-based, HEK-293T
[38] = target: Bone morphogenetic protein receptor type-1B (Homo sapiens, UniProt O00238); assay: Selectivity interaction (NanoBRET assay (HEK293T cells)) EUB0001465a BMPR1B; format: cell-based, HEK-293T
TGF-beta receptor type-1 = TGF-beta receptor type-1 (Homo sapiens, UniProt P36897); assay: Selectivity interaction (NanoBRET assay (HEK293T cells)) EUB0001465a TGFBR1; format: cell-based, HEK-293T

T7 sequence (Q96SB4 whole entry): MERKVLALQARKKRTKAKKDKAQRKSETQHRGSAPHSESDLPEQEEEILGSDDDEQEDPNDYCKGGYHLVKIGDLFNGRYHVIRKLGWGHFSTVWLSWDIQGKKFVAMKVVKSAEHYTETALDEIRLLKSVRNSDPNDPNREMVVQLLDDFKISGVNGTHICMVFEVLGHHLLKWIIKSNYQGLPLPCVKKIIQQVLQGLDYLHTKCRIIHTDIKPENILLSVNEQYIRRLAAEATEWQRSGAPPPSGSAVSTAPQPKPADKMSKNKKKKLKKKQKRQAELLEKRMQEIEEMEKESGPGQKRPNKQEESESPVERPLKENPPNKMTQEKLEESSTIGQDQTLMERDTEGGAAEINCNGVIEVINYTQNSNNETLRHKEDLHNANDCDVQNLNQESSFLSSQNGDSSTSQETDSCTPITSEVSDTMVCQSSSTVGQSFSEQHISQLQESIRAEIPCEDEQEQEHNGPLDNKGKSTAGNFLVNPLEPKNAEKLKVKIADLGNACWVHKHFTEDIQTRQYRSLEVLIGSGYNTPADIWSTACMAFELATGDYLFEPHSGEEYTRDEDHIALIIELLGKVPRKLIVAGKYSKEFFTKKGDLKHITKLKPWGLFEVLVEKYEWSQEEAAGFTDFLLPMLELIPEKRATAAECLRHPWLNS
T1 sequence (Q16539 whole entry): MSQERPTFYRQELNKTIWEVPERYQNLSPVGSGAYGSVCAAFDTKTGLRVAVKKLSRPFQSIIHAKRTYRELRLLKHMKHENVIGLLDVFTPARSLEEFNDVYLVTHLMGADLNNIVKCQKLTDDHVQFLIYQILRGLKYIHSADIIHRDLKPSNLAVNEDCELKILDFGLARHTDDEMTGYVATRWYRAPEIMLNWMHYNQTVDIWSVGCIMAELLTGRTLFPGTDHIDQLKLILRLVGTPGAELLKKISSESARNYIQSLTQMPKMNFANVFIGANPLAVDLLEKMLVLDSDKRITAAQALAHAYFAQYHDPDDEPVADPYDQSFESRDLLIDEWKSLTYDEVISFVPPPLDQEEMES
T10 sequence (Q9BXF3 whole entry): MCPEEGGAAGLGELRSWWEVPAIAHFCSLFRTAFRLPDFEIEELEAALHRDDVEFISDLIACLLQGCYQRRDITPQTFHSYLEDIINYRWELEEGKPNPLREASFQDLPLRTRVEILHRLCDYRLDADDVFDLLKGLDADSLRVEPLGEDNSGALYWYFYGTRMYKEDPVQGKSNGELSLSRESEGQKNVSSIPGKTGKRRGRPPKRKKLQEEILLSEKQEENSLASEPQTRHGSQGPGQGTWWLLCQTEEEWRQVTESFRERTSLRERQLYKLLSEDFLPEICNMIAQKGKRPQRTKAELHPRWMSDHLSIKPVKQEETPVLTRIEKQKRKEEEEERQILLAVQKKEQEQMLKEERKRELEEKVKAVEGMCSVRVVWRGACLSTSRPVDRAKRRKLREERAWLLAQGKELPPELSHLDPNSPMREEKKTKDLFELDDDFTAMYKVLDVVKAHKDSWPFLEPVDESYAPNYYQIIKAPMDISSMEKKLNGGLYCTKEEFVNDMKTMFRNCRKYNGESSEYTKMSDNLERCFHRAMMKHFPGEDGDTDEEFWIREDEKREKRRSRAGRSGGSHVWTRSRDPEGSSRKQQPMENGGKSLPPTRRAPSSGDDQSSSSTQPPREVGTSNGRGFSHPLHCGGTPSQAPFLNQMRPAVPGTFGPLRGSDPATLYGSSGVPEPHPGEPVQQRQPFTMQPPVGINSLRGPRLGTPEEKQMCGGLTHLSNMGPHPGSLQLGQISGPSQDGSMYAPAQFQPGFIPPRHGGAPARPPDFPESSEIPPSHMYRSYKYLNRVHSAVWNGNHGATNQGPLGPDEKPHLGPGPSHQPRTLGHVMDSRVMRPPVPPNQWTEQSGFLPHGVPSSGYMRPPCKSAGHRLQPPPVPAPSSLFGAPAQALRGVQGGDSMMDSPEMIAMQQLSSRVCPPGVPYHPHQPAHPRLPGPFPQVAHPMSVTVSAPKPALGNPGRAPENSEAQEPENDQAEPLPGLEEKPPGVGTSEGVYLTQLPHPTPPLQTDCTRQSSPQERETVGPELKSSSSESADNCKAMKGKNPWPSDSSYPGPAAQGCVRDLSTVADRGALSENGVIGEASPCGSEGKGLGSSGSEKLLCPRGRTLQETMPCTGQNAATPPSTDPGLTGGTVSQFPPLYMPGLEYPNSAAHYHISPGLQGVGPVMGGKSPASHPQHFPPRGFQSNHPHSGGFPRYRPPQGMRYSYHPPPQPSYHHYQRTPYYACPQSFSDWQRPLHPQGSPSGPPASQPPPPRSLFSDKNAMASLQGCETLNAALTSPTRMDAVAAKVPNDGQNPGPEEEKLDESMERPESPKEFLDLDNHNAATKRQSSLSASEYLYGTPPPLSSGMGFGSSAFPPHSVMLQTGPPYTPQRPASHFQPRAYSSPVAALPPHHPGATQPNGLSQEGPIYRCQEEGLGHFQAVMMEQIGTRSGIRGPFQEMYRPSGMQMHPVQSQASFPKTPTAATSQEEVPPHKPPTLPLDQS
Sequence of TRAF2 and NCK-interacting protein kinase (Homo sapiens) (Q9UKE5 whole entry, looked up): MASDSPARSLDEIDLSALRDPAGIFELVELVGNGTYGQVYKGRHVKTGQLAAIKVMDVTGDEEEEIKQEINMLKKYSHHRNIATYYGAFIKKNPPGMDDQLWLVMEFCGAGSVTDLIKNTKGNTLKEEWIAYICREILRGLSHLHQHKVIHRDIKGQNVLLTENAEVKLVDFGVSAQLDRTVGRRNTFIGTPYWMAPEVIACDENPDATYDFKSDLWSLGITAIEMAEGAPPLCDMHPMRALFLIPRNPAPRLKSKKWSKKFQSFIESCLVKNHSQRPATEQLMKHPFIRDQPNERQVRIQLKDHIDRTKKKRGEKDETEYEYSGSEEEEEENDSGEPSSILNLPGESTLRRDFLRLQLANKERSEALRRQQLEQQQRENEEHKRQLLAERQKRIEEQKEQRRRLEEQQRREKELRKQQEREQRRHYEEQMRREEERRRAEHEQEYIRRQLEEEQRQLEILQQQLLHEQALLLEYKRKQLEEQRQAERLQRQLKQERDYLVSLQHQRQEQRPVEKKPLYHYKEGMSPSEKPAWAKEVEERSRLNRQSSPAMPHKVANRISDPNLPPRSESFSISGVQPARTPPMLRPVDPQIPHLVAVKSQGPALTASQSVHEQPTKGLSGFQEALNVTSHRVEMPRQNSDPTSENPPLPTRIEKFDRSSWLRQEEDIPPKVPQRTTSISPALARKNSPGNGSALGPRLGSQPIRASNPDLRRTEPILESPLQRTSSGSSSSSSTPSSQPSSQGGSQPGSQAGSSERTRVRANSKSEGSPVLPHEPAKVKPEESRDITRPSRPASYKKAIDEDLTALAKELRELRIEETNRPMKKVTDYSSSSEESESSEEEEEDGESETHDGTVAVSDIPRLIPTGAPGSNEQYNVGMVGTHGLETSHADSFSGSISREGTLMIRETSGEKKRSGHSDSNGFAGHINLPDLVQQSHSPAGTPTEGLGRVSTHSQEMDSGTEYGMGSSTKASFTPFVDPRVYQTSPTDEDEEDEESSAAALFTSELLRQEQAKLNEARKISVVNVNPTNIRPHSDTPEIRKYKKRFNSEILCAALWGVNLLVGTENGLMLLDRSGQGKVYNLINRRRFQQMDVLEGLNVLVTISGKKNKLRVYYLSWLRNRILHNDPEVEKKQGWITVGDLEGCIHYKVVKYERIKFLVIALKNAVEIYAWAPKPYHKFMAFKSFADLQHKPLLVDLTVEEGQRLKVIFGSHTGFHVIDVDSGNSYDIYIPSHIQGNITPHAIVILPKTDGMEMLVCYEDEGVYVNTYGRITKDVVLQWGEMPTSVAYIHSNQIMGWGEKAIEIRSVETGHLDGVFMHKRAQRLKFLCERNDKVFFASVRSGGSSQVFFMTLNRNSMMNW
Sequence of Dual specificity protein kinase CLK1 (P49759 whole entry): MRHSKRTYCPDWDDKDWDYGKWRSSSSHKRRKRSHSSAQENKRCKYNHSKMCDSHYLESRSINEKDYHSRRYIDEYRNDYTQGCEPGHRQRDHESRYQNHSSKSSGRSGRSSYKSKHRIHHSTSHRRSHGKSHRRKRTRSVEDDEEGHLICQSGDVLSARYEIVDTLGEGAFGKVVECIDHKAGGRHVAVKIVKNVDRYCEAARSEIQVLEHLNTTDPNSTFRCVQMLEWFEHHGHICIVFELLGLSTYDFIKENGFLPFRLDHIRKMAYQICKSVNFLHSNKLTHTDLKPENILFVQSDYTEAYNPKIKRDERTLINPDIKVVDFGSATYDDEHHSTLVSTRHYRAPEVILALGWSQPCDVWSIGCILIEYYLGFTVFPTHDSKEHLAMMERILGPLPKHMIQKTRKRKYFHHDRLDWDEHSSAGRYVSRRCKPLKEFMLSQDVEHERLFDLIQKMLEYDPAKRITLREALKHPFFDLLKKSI
Sequence of Bromodomain-containing protein 7 (Q9NPI1 whole entry): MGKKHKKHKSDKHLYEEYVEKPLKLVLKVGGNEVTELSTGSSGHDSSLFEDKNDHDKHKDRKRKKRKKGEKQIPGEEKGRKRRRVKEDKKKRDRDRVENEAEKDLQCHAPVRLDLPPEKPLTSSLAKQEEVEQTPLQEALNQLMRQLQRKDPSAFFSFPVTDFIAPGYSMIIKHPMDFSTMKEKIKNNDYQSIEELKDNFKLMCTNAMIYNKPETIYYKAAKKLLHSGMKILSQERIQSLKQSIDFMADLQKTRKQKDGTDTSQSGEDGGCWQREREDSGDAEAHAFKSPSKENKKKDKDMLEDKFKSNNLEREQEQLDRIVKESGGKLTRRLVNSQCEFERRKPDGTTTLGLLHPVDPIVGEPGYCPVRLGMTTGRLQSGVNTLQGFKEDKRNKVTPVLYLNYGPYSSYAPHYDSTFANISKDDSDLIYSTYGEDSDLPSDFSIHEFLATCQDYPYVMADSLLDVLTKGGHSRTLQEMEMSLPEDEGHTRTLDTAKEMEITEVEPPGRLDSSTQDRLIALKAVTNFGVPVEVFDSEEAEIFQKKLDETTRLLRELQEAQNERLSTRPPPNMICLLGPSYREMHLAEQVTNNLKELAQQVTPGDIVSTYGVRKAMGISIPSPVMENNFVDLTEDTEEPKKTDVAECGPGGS

Compound: CCc1ccc(-c2ncn(CC3(F)CCN(C)CC3)c2-c2ccnc3[nH]ccc23)nc1
IC50 [1]: > 3 µM | IC50 [2]: 9.9 µM

Compound: CN1CCC(F)(Cn2cnc(-c3ccc(F)cn3)c2-c2ccnc3[nH]ccc23)CC1
% of inhibition [3]: 6% | IC50 [4]: 0.52 µM | % of inhibition [5]: -6% | IC50 [6]: 0.5 µM | % of inhibition [7]: 0% | IC50 [8]: 12.4 µM | % of inhibition [9]: 43% | % of inhibition [10]: 71%

Compound: COc1cc(-c2cncc(-c3ccc(N4CCN(C(C)C)CC4)cc3)c2C)cc(F)c1C(=O)N1CCCC1
IC50 (Activin receptor type-1B): > 0.01 µM | IC50 [37]: > 0.01 µM | IC50 [38]: > 0.01 µM | IC50 (TGF-beta receptor type-1): > 0.01 µM

Now from value to compound:

IC50 [11]: > 10 µM | IC50 [12]: > 10 µM | IC50 [13]: > 10 µM | IC50 [14]: > 10 µM | IC50 [15]: > 10 µM | IC50 [16]: > 10 µM | IC50 [17]: > 10 µM | IC50 [18]: > 10 µM | % of control (SRSF protein kinase 1 [19]): 8.76% | dTM (SRSF protein kinase 1 [20]): 9.1 K | dTM [21]: 4 K
Compound: CN(c1ncccc1CNc1ccnc(-c2nc3c(F)c(Cl)ccc3[nH]2)n1)S(C)(=O)=O

IC50 [22]: > 100 µM | IC50 [23]: > 100 µM | IC50 [24]: > 100 µM | IC50 [25]: > 100 µM | IC50 [26]: > 200 µM | IC50 [27]: > 100 µM | IC50 [28]: > 100 µM | IC50 [29]: > 200 µM | IC50 (Peregrin): > 200 µM | IC50 [30]: > 100 µM | IC50 [31]: > 200 µM | IC50 (CREB-binding protein): > 100 µM | IC50 [32]: > 200 µM | IC50 [33]: > 100 µM | IC50 [34]: > 77 µM | IC50 [35]: > 200 µM | IC50 [36]: > 100 µM
Compound: CCc1cc2cc(NS(=O)(=O)c3ccc(C#N)cc3)ccc2n(CC)c1=O

Reference: ChEMBL document CHEMBL5465560, “Selectivity Literature for EUbOPEN Chemogenomic Library” (2024)
